# Data taken from the OPERA property sets (Mansouri et al. 2018).
# Details: not given
Compound,log10 vapour pressure (mmHg),boiling point [°C],melting point [°C],ready biodegradability,log10 Koc (L/kg),log10 Henry constant (atm·m³/mol),log10 Koa,log10 biodegradation half-life (days)
C=CC(=O)OCCOC(=O)C=C,-1.18,–,–,–,–,–,–,–
C[C@@H]1C[C@H](C)CC(C)(C)C1,–,152,–,–,–,–,–,–
FC1C(F)(F)C(F)(F)C(F)(F)C(F)(F)C1(F)F,–,62,–,–,–,–,–,–
Cc1ccc(C=O)cc1,-0.602,204,-6,readily biodegradable,–,–,–,–
CCC=CCC(=O)OCC,–,166,–,–,–,–,–,–
C#CC(C)=O,–,84,–,–,–,–,–,–
COc1ccc(-c2ccc(OC)cc2)cc1,–,–,175,–,–,–,–,–
CCCC(=O)CCC,0.787,144,-33,–,–,–,–,–
O=C(O)c1ccc(F)c(F)c1F,–,–,141,–,–,–,–,–
COc1ccc(/C=C/c2cc(OC)cc(=O)o2)cc1,–,–,156,–,–,–,–,–
C=CCCCCCCCCC,-0.307,193,-49.2,–,–,–,–,–
Cc1cc(N(CCO)CCO)ccc1N=Nc1ccc([N+](=O)[O-])cc1Cl,–,–,192,–,–,–,–,–
N#Cc1ccc(Cl)c([N+](=O)[O-])c1,–,–,99,–,–,–,–,–
CC1CN(C)CCN1C (configuration not stated),–,150,–,–,–,–,–,–
[O-][N+](=Nc1ccccc1)c1ccccc1,–,–,36,–,3.5,–,–,–
Oc1cccc(O)c1,-3.31,280,111,readily biodegradable,0.98,–,–,–
O=C(O)C(F)(F)C(F)(F)C(F)(F)C(F)(F)C(=O)O,–,–,134,–,–,–,–,–
NS(=O)(=O)c1cc2c(cc1C(F)(F)F)NC(Cc1ccccc1)NS2(=O)=O (configuration not stated),–,–,222,–,–,–,–,–
C#CCCC#C,–,86,-6,–,–,–,–,–
c1ccc(-n2ccnc2)cc1,–,276,13,–,–,–,–,–
CC(C)OC(N)=O,–,183,93,–,–,–,–,–
CCCCCCCC(=O)Cl,–,196,-63,–,–,–,–,–

Compound,log10 vapour pressure (mmHg),boiling point [°C],melting point [°C],ready biodegradability,log10 Koc (L/kg),log10 Henry constant (atm·m³/mol),log10 Koa,log10 biodegradation half-life (days)
CCCCCCCCC=CCCCCCCCC(=O)OCCCC,–,–,–,readily biodegradable,–,–,–,–
Oc1c(Br)cc(Br)c(Br)c1Br,–,–,114,–,–,–,–,–
CCCC(=O)OCCC(C)C,-0.0223,179,-73.2,–,–,–,–,–
CCOC(=O)CC(C(C)=O)C(=O)OCC (configuration not stated),–,255,–,–,–,–,–,–
C=CC(O)C=C,–,116,–,–,–,–,–,–
CC1C2Cc3ccc(O)cc3C1(C)CCN2CC1CC1 (configuration not stated),–,–,202,–,–,–,–,–
O=C(OCC(=O)N1CCC(O)CC1)c1ccccc1,–,–,122,–,–,–,–,–
CCCCCCCCCCC1CCCCC1,-2.99,299,-1.7,–,–,–,–,–
Clc1cccc(Nc2ccccc2)c1,–,338,–,–,–,–,–,–
CCOC(=O)C1(S(=O)(=O)c2ccc(C)cc2)CC1,–,–,75.5,–,–,–,–,–
CCC(Cc1ccccc1)c1ccccc1 (configuration not stated),–,290,–,–,–,–,–,–
Clc1ccc(-c2cc(Cl)c(Cl)cc2Cl)c(Cl)c1,-4.66,–,–,–,–,-4.11,–,–
CCc1ccc2c(c1)C(=O)c1ccccc1C2=O,–,–,110,not readily biodegradable,–,–,–,–
CC(C)(O)C(=O)c1ccc(OCCO)cc1,–,–,89,–,–,–,–,–
Clc1cc(Cl)c2cccc(Cl)c2c1Cl,–,–,–,–,–,–,8.41,–
CC(=O)NCCCCCC(=O)O,–,–,104,–,–,–,–,–
C=Cc1ccccc1CC,–,187,-75.5,not readily biodegradable,–,–,–,–
CC(C)(Cl)CCC(C)(C)Cl,–,–,67.5,–,–,–,–,–
CC(C)C1CC=C(C=O)CC1 (configuration not stated),–,223,–,–,–,–,–,–
CC1(C)C(=O)Nc2ccccc21,–,300,154,–,–,–,–,–
CCCCCCCCCCCCCC(N)=O,–,–,104,–,–,–,–,–
CC(=O)Nc1cccc(C)c1,–,303,65.5,–,1.45,–,–,–

Compound,log10 vapour pressure (mmHg),boiling point [°C],melting point [°C],ready biodegradability,log10 Koc (L/kg),log10 Henry constant (atm·m³/mol),log10 Koa,log10 biodegradation half-life (days)
O=[N+]([O-])c1ccc(Cl)c(Cl)c1Cl,–,–,55.5,–,–,–,–,–
C=CCC1(C(C)C)C(=O)NC(=O)NC1=O,–,–,141,–,–,–,–,–
NC1=NCC(c2ccccc2)O1 (configuration not stated),–,–,136,–,–,–,–,–
Fc1ccc(Oc2ccnc3cc(Cl)cc(Cl)c23)cc1,-6.82,–,107,–,–,–,–,–
CC(=O)CF,1.8,77,–,–,–,–,–,–
C=COCCCCCCCCCC,–,–,-41,–,–,–,–,–
COc1ccc(Cl)c(N)c1,–,–,27,–,–,–,–,–
Clc1ccc(Oc2ccccc2)c(Cl)c1,-3.04,–,–,–,–,–,–,–
O=C(c1cccs1)c1cccs1,–,326,90,–,–,–,–,–
ClC(Cl)(Cl)c1ccc(C(Cl)(Cl)Cl)cc1,–,–,109,–,–,–,–,–
O=C1OC(=O)c2c(Cl)c(Cl)c(Cl)c(Cl)c21,–,–,254,not readily biodegradable,–,–,–,–
C1CCCNCCC1,–,–,29,–,–,–,–,–
Clc1ccc2c(Cl)c(Cl)ccc2c1Cl,–,–,–,–,–,–,8.28,–
C=CC[C@]1(O)CC[C@H]2[C@@H]3CCC4=CCCC[C@@H]4[C@H]3CC[C@@]21C,–,–,80,–,–,–,–,–
C1OCC2(CO1)COCOC2,–,–,48.3,–,–,–,–,–
CCN(C(C)=O)C(C)=O,–,197,–,–,–,–,–,–
C=CC(=O)OCC(CC)(COC(=O)C=C)COC(=O)C=C,–,–,–,not readily biodegradable,–,–,–,–
O=C1C(Cl)=C(Cl)C(=O)N1c1ccc(F)cc1,–,–,241,–,–,–,–,–
CCCCCC(C)N (configuration not stated),–,142,–,–,–,–,–,–
CC(=O)c1ccc(C)s1,–,232,27.5,–,–,–,–,–
c1ccc2c(c1)ccc1c3ccccc3ccc21,-8.21,448,258,–,–,-5.28,–,2.58
CNC(=C[N+](=O)[O-])NCCSCc1csc(CN(C)C)n1,–,–,131,–,–,–,–,–

Compound,log10 vapour pressure (mmHg),boiling point [°C],melting point [°C],ready biodegradability,log10 Koc (L/kg),log10 Henry constant (atm·m³/mol),log10 Koa,log10 biodegradation half-life (days)
CCOC(=O)CSCCC1NC(C(=O)O)CS1 (configuration not stated),–,–,142,–,–,–,–,–
O=c1[nH]c(=O)n([C@H]2C[C@H](O)[C@@H](CO)O2)cc1C(F)(F)F,–,–,188,–,–,–,–,–
Cc1cc(N(C)C)nc(Cl)n1,–,–,87,–,–,–,–,–
Cn1cncc1C[C@H]1COC(=O)[C@@H]1[C@@H](O)c1ccccc1,–,–,179,–,–,–,–,–
CC(C)(C)C(C)(C)C,1.32,106,101,–,–,–,–,–
c1ccc(OCCOc2ccccc2)cc1,–,–,98,–,–,–,–,–
CC(C)CC(=O)c1ccccc1,–,236,–,–,–,–,–,–
Cc1nc2ccccc2[nH]1,–,–,176,–,–,–,–,–
c1ccc2c(N=Nc3cccc4ccccc34)cccc2c1,–,–,190,–,–,–,–,–
CC(C)(CO)Cc1ccccc1,–,–,34.5,–,–,–,–,–
CC(=O)Nc1nnc(S(N)(=O)=O)s1,–,–,260,–,–,–,–,–
C/C=C1/C[C@@H](C)[C@](O)(CO)C(=O)OCC2=CCN3CC[C@@H](OC1=O)[C@@H]23,–,–,212,–,–,–,–,–
CCOC(=O)C(C(=O)OCC)=C(C(=O)OCC)C(=O)OCC,–,–,58,–,–,–,–,–
CC(=O)CCCCBr,–,216,–,–,–,–,–,–
CCOC(CC)OCC,–,123,–,–,–,–,–,–
COC(Cc1ccccc1)OC,–,220,–,–,–,–,–,–
COC(=O)C(C)Oc1ccc(Oc2ncc(C(F)(F)F)cc2Cl)cc1 (configuration not stated),-5.22,–,56,–,1.88,–,–,–
Cc1cccc2ccc(Cl)nc12,–,287,61,–,–,–,–,–
COS(=O)(=O)OC,-0.169,–,-27,–,–,–,–,–
CCCCCCCCCCCCCOC(=O)c1ccccc1C(=O)OCCCCCCCCCCCCC,–,–,–,not readily biodegradable,–,–,–,–
C=CCC1(C(C)CCC)C(=O)NC(=O)NC1=O (configuration not stated),–,–,100,–,–,–,–,–

# Same assay, conditions: fish
Compound,log10 biotransformation half-life (days),log10 BCF
C=CCCCCCCCCC,0.09,–
Clc1ccc(-c2cc(Cl)c(Cl)cc2Cl)c(Cl)c1,2.73,–
CCc1ccc2c(c1)C(=O)c1ccccc1C2=O,–,0.98
O=[N+]([O-])c1ccc(Cl)c(Cl)c1Cl,-0.19,2.2
c1ccc2c(c1)ccc1c3ccccc3ccc21,0.59,–
COC(=O)C(C)Oc1ccc(Oc2ncc(C(F)(F)F)cc2Cl)cc1 (configuration not stated),-1.08,1.23
